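A five-concentration, 48-hour dose response in 96-well plates underlies each endpoint, interpolated linearly between surrounding concentrations. GI50: concentration for 50% inhibition of growth. The concentration for full growth arrest is given as TGI.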
Experiments:
Experiment in all cases: NCI anticancer screen, dose series, 48 h
[1] = test system: TK-10 renal
[2] = test system: MALME-3M melanoma
[3] = test system: HS 578T breast
[4] = test system: SK-MEL-2 melanoma
[5] = test system: SF-295 CNS
[6] = test system: OVCAR-8 ovarian
[7] = test system: SW-620 colon
[8] = test system: OVCAR-3 ovarian

Structure (SMILES)	GI50 [1] [µM]	TGI [1] [µM]	GI50 [2] [µM]	TGI [2] [µM]	GI50 [3] [µM]	TGI [3] [µM]	GI50 [4] [µM]	TGI [4] [µM]	GI50 [5] [µM]	TGI [5] [µM]	GI50 [6] [µM]	TGI [6] [µM]	GI50 [7] [µM]	TGI [7] [µM]	TGI [8] [µM]	GI50 [8] [µM]
CCN(CC)CCN1C(=O)C2C3C(=O)CC(C)(CC3C)C2C1=O (centres undefined)	> 100	> 100	> 100	> 100	> 100	> 100	> 100	> 100	> 100	> 100	> 100	> 100	> 100	> 100		
CN(C)C=NC1CCC(C(C)(C)C)CC1 (centres undefined)		38.6		34.9		42		35.4		31.2		28.9		34.4	28.8	
O=C1C=CC(=Nc2cccc3c(N=C4C=CC(=O)O4)cccc23)O1		33.3		42.8		> 100		> 100		> 100		41.1		34.3	> 100	
C(=Nc1cnc2ccccc2c1)c1ccc2ccccc2n1		> 100		> 100		> 100		> 100		> 100		> 100		> 100	> 100	
OCc1ccc(N2CCc3cc(F)ccc3C2)cc1Cl		0.0416	16.6	31.8	21.3	59.1	0.375	17.8	0.0449	13.9	7.31	20.8	0.17	15.8	0.288	0.0518
O=C1c2ccccc2C(=O)c2c1ccc1c(=O)n(-c3ccccc3C(F)(F)F)nnc21	3.89	> 100	1.27	2.54	3.04	> 100	2.64	7.61	2.59	7.02	2.49	> 100	3.43	> 100	1.42	0.315
COc1ccccc1/C=C/C1=C(C)CCC(c2ccccc2OC)C1C (centres undefined)	0.227	45.1	11.9	> 100	0.112	0.708	0.224	> 100	< 0.0201	1.53	0.137		0.138	> 100		
CCCCCCCCCC(CCCC(O)CC(=O)O)OC1OC(COC2OC(C)C(OC(C)=O)C(O)C2O)C(O)C(O)C1OC1OC(CO)C(O)C(O)C1OC1OC(C)C(OC(=O)CC(C)C)C(O)C1O (centres undefined)	> 35	> 35	> 35	> 35	> 35	> 35			> 35	> 35	> 35	> 35	> 35	> 35	> 35	> 35
c1ccc(-c2n(Cc3ccc4ccccc4c3)cc[n+]2Cc2ccc3ccccc3c2)cc1	1.34	2.83	1.14	2.56	1.61	4.08			1.26	2.55			1.08	2.48		
O=S(=O)(c1ccccc1)N1CN2CN(C1)CN(S(=O)(=O)c1ccccc1)C2		> 100						> 100		> 100		> 100		> 100	> 100	
ClCc1ccc(Cn2cnc3c(Cl)ncnc32)cc1	11.3	23.6			13.6	29.1	19.7	> 92.8	5.71	19.2	16.5	44.2	7.67	19.4	18.5	8.73
COc1ccc(Cn2cc3c(c2)-c2oncc2CC3)cc1OC	0.453	> 50			0.132	0.447	0.248	15.1	0.15	1.71	0.322	> 31.7	0.153	> 50	0.35	0.134
CC(=O)Nc1ccc(/C=C2\N=C(c3ccccc3)OC2=O)cc1		> 100		> 100				> 100		> 100				> 100		
CC[C@]1(O)CC2CN(CCc3c([nH]c4ccccc34)[C@@](C(=O)OC)(c3cc4c(cc3OC)N(C=O)[C@H]3[C@@](O)(C(=O)OC)[C@H](OC(C)=O)[C@]5(CC)C=CCN6CC[C@]43[C@@H]65)C2)C1 (some centres undefined)	0.0192	9.86			0.0486	> 46.1	< 0.005	4.16	< 0.005	1.35	0.00828	> 50	< 0.005	> 50		< 0.005
COc1ccc2nc(-c3ccccc3)cc(Nc3cccc(C(C)=O)c3)c2c1	12.6	28.5	12.5	27.7	10.5	35.6	38.8	> 100	12.7	31.6	2.23	14.8	2.7	15.1		
O=C(Nc1ccccc1C(F)(F)F)c1ccc(NC2=C(Cl)C(=O)N(Cc3ccccc3)C2=O)cc1	17.6	52.5			43.6	> 100	40.6	> 100	31.8	> 100	28.7	> 100	> 100	> 100	76.9	13.1
Cc1ccc(-c2nc3cc(Cl)c(Cl)cc3nc2C#N)cc1	49.2	> 100	92.7	> 100			> 100	> 100	> 100	> 100	> 100	> 100	> 100	> 100	> 100	> 100
O=C(Nc1cccc(-n2cc(-c3ccncc3)c(-c3ccc(O)c(Cl)c3)n2)c1)c1cc(C(F)(F)F)cc(C(F)(F)F)c1	10.9	> 50	9.79	41.9	5.19	> 50	9.33	34	2.14	34.2	4.88	> 50	12.2	> 50		

— PubChem BioAssay (NCI)
